{"source": "patent US20180235860A1", "about": "“USE OF DIETHANOLAMMONIUM DERIVATIVES AS SKIN MOISTURIZER” (L'OREAL, priority 2015, published 2018)", "system": "isolated stratum corneum (SC)", "assay": "Moisturizing potential on isolated stratum corneum by measurement with a Corneometer (dielectric capacitance)", "details": "for Mean DHCMi corr. active agent: vehicle-corrected; for Dielectric capacitance of the stratum corneum / moisturizing effect in comparison with glycerol at the same concentration: 5% by weight, result in words", "protocol": "B): Evaluation of the Moisturizing Potential on Isolated Stratum Corneum by Measurement with a Corneometer\nA test was performed to evaluate the moisturizing potential of the compounds of the invention formulated in an aqueous solution to an amount of 5% by weight relative to the total weight of the composition.\nThe technique makes it possible to measure the dielectric capacitance of stratum corneum (SC), which depends on the mean dielectric permittivity value of the tissue. The dielectric permittivity varies greatly with the amount of water contained in the SC.\nThe SC samples are conditioned at 75% relative humidity and at 25° C. before/during the measurements and the treatment. The capacitance measurement is performed using a Corneometer™ (Courage & Khazaka, Germany).\nThe test compound, compound 2 according to the invention or a moisturizing active agent such as glycerol, is dissolved in a water/n-propanol mixture (80/20) and the solution is deposited onto the SC at a rate of 10 μl/cm^2 followed by air-drying for a total duration of 1 hour 30 minutes.\nMeasurement is taken at T0, before the treatment, and a measurement Ttreat is taken after total drying of the treatment.\nEach treatment is systematically compared with its control (vehicle) and with its T0.\nUsing at least two different batches of SC, four to five SC samples are measured per treatment.\nThe variation in the corneometer signal (HCM) after treatment is calculated first for each SC sample: DHCMi=HCMi(Ttreat)−HCMi(T0). The mean of the DHCMi(vehicle) variations is then calculated for the control samples (treated with the vehicle); this mean value is subtracted from all the DHCMi(active agent) variations to correct the systematic bias.\nThe following is measured for each sample i: • For the vehicle (control): DHCMi(veh)=HCMiveh(Ttreat)−HCMiveh(T0) • For the active agent: DHCMiactive agent=HCMiactive agent(Ttreat)−HCMiactive agent(T0)\nTo correct the systematic bias associated with the vehicle, the corrected value DHCMicorr. active agent is considered for the active agent according to: DHCMicorr. active agent−DHCMiactive agent−M\nin which M corresponds to the mean of the DHCMi(veh) variations observed on the n control samples:\nThe mean DHCMi corr. active agent values, and also the associated standard deviations that were obtained, are reported in the table below for compound 2 tested at 5%, in comparison with glycerol at 5%: […]", "key": {"[1]": {"details": "5% by weight in water/n-propanol mixture (80/20), 10 μl/cm2 on SC, 75% RH, 25° C., table for compound 2 vs glycerol"}, "[2]": {"details": "5% by weight in water/n-propanol mixture, table for compounds 13 and 14 vs glycerol"}}, "data": [{"smiles": "C[N+](C)(CCO)CCO.[Cl-]", "note": "[Compound 2]", "values": [{"measurement": "Mean DHCMi corr. active agent", "setting": "[1]", "result": 25.9}, {"measurement": "Dielectric capacitance of the stratum corneum / moisturizing effect in comparison with glycerol at the same concentration", "result": "much better"}]}, {"smiles": "CC(O)C(=O)[O-].C[N+](C)(CCO)CCO", "note": "[Compound 13]", "values": [{"measurement": "Mean DHCMi corr. active agent", "setting": "[2]", "result": 14}, {"measurement": "Dielectric capacitance of the stratum corneum / moisturizing effect in comparison with glycerol at the same concentration", "result": "better"}]}, {"smiles": "OCC(O)CO", "note": "[Glycerol, glycerol, reference compound]", "values": [{"measurement": "Mean DHCMi corr. active agent", "setting": "[1]", "result": 13.8}, {"measurement": "Mean DHCMi corr. active agent", "setting": "[2]", "result": 11}]}]}
